Row | melting point | Compound
1 | 123 to 125 °C | CCN1C(=O)C(C)(C)C(=O)N(C)c2cc(CN(CCn3ccc4occc4c3=O)Cc3cccnc3COC)ccc21
2 | 137 °C | COc1c(C(=O)NCCN2CCN(c3cccc(Cl)c3Cl)CC2)cc(Br)c2ccccc12
3 | 269 to 274 °C | Cc1c2ccc(-c3nn(C(C)c4oc5ccccc5c(=O)c4-c4cccc(F)c4)c4ncnc(N)c34)cc2nn1C (centres undefined)
4 | 153 to 155 °C | CN(C)C(=O)c1cccn1N1C(=O)c2ccccc2C1=O
5 | 180 °C | O=C(O)CCCc1cc2nc(Cl)ccc2n1S(=O)(=O)c1ccc(F)cc1
6 | 58 to 60 °C | OC1CCCc2sccc21 (centres undefined)
7 | 46 to 49 °C | COc1cc(CO)cc(F)n1
8 | 238 to 241 °C | NC(=O)Nc1ccc(C2=NNC(=O)Cc3cc4c(cc32)OCO4)cc1
9 | 209 to 211 °C | Cc1nc2c(N)nc3ccccc3c2n1CC(C)(C)CC1(C)OCCO1
10 | 108 to 110 °C | COc1ccc2c(OC)c(C(C)C)cc(Br)c2c1
11 | 207 to 208 °C | CN(CCCNC1=CC(=O)c2sc(C(=O)N3CCOCC3)nc2C1=O)CCCNC1=CC(=O)c2sc(C(=O)N3CCOCC3)nc2C1=O
12 | 185 °C | N#Cc1ccccc1C=C1c2ccccc2CCc2ccccc21
13 | 200 to 202 °C | Nc1nc(N)nc(N2CC=CCC2)n1
14 | 205 to 207 °C | O=C(NC(Cc1cccc(C(F)(F)F)c1)C(=O)N1CCSC1)c1cc2cc(Cl)ccc2[nH]1 (centres undefined)
15 | 83 to 85 °C | O=Cc1c(Cl)cc(OCCO)cc1Cl
16 | 148 to 149 °C | Cc1ccc(COc2ccc(C=C3CCCCC3=O)cc2)cc1
17 | 145 to 150 °C | COc1ccc(OC)c2nccnc12
18 | 69 to 71 °C | O=C1CC2C1CC(O)C2Cl (centres undefined)
19 | 130 to 132 °C | C=CCOc1nc(N)nc(-c2ccccc2)c1-c1ccc(=O)n(C(C)C)n1
20 | 166 to 169 °C | CC(C)(C)OC(=O)N1CCC(c2nc3cc(-c4ccc(C(F)(F)F)cc4)ccc3o2)CC1
21 | 70 to 80 °C | N#Cc1ccc(OCCNC(=O)C2Cc3ccccc3N2S(=O)(=O)c2ccc(-c3cccc(C(F)(F)F)c3)cc2)cc1 (centres undefined)
22 | 110 to 112 °C | CCOC1CC2(C)C(CCC3C4CCC(C(=O)OC)C4(C)CC(NC4CCCCC4)C32)CC1O (centres undefined)
23 | 191 to 193 °C | Cc1ncccc1CN(CCn1cc(C)c2occc2c1=O)Cc1ccc2c(c1)NC(=O)C(C)(C)C(=O)N2C1CC1
24 | 198 to 201 °C | CCCc1nc2c(N)nc3ccc(-c4ccc(F)cc4CN)cc3c2s1

Row | melting point | Compound
25 | 335 to 355 °C | Cc1c(-c2ccnc(C(F)(F)F)c2)sc2nc(N)[nH]c(=O)c12
26 | 57 °C | CCCCCCCCc1ccc(C=CC(=O)CC(=O)OCC)cc1
27 | 231 to 234 °C | CSc1cn(C)c2cc(Cl)sc2c1=O
28 | 120 to 122 °C | CCCCC(O)c1cccc(O)c1 (centres undefined)
29 | 57.2 °C | CC(NC(=O)C(N)CC(=O)O)C(=O)NC1C(C)(C)SC1(C)C (centres undefined)
30 | 132 to 134 °C | CCCCc1ccc(NC(=O)CCc2ccccc2)c(=O)n1CC(=O)O
31 | 166 to 167 °C | COCCOC1c2ccn3c(Br)c(C)nc3c2N(C(C)=O)C(c2ccccc2)C1OC(=O)C(C)(C)C (centres undefined)
32 | 196 to 198 °C | COc1ccc(-c2nn3c(N4CCCC4)nnc3c3ccccc23)cc1
33 | 198 to 200 °C | COc1ccc(NC(N)=O)c(C#N)c1OC
34 | 137 to 138 °C | CC(C)N(C)CCOc1ccc(-n2ccc(OCc3ccc(Cl)cn3)cc2=O)cc1
35 | 148 °C | O=C(C=C1OC(=O)c2cccc(Cl)c21)c1ccccc1
36 | 204 to 205 °C | CCOCc1nc2c(N)nc3ccccc3c2n1CCN1C(C)=NOC1(C)C
37 | 162 to 165 °C | CC(C)[C@H](NC(=O)Cc1csc(N(C)C)n1)C(=O)N[C@@H](Cc1ccccc1)C[C@H](O)[C@H](Cc1ccccc1)NC(=O)Cc1cncs1
38 | 157 to 159 °C | CCCn1c(COCC)nc2c(N)nc3ccc(OCCN)cc3c21
39 | 32 °C | CCC[C@H]1CC[C@H](c2ccc(OCC)c(C=O)c2)CC1
40 | 350 °C | Nc1nc2c(ncn2COCC=O)c(=O)[nH]1
41 | 87 to 88 °C | CCCCCC[C@@H]1C[C@H](c2ccc(O)cc2)C(=O)O1
42 | 116 to 118 °C | CC(=O)NCc1ccc(CCl)cc1
43 | 188 to 190 °C | O=C(O)CC(C(=O)O)C(CSc1nc2ccccc2s1)C(=O)O (centres undefined)
44 | > 270 °C | COc1cc2c(c(F)c1CNC1CCCNC1c1ccccc1)N(C)C(=O)CC2(C)C (centres undefined)
45 | 126 to 128 °C | COc1cc2c(c(OC)c1)C(Cc1ccc(-c3ccccc3OC)cc1)N(C(=O)OC(C)(C)C)CC2 (centres undefined)
46 | 130 to 132 °C | COc1ccc(S(=O)(=O)N2CCc3cccc(-c4ccc(C(=O)O)cc4)c32)cc1
47 | 92 to 94 °C | COC(=O)Cc1ccc(C(F)(F)F)cc1NC(C)=O
48 | 131 °C | COc1ccc(-c2c(SCc3ccccc3)oc3cc(OCc4ccccc4)ccc3c2=O)cc1

Row | melting point | Compound
49 | 184 to 186 °C | CCCCNC(=O)NS(=O)(=O)c1c(Cl)cccc1-c1ccccc1
50 | 206 °C | CCOC(=O)c1c(Cl)c2sccc2[nH]c1=O
51 | 175 to 177 °C | Cc1cc(-c2ccccc2)n2nc(C)c(C#N)c2n1
52 | 240 to 242 °C | CN(C)CCNc1ccc(-c2nn(CC(=O)O)c3ncccc23)cc1
53 | 97 to 99 °C | Cc1c(CO)ncn1CCCNC(C)(C)c1ccc(Cl)cc1
54 | 105 to 108 °C | Cc1cc(C(=O)c2ccc(Cl)cc2)ccc1[N+](=O)[O-]
55 | 188 to 189 °C | CC(=O)Nc1cc(F)c([N+](=O)[O-])cc1F
56 | 174 to 176 °C | CC(C)CCCC(C)C1CCC2C3CC=C4CC(OC(=O)C(C)(C)CO)CCC4(C)C3CCC12C (centres undefined)
57 | 196 to 197 °C | CN(C)C(=O)Cn1nc(-c2ccccc2O)nc1-c1ccccc1O
58 | 132 to 135 °C | CC(C)NC(=NC(=Nc1ccccc1)N1CCOCC1)C(C)C
59 | 124 to 125 °C | C#CCN1CC(=O)NC1=O
60 | 185 to 186 °C | C1C2CC3CC1CC(C2)C3=C1C2CC3CC(C2)CC1C3
61 | 93 to 96 °C | CCCCCCN1N=C(c2ccc(F)cc2)c2cc(F)ccc2CS1(=O)=O
62 | 96 to 98 °C | O=C(CCC(C(=O)O)N1C(=O)c2ccccc2C1=O)OCc1ccccc1 (centres undefined)
63 | 100 to 115 °C | CC(C)S(=O)(=O)N1C[C@@H](c2c[nH]c3ccccc23)[C@H](c2cn3c4c(cccc24)CCC3)C1
64 | 152 to 166 °C | CC(C)Cn1c(C(C)O)nc2cnc3ccccc3c21 (centres undefined)
65 | 157 to 159 °C | CCOC(=O)c1c(C(=O)OC)c(O)c2cc(OC)c(OC)c(OC)c2c1-c1ccc(OC)c(OC)c1
66 | 222 to 225 °C | COc1ccc(C(=O)Nc2c(Cl)cncc2Cl)c2c3ccccc3n(Cc3ccc(F)cc3)c12
67 | 123 °C | CCNC(=O)C(c1ccccc1)N1CCN(c2ccc(NC(=O)c3ccccc3-c3ccc(C(F)(F)F)cc3)cc2)CC1 (centres undefined)
68 | 96 to 98 °C | CCN(C(=O)c1cc(N(C)C)ccc1[Si](C)(C)C)C(OC)C(C)(C)C (centres undefined)
69 | 106 °C | C#CCOC(=O)Cc1c(C)nn(-c2cnccc2C)c1-c1ccccc1
70 | 98 to 100 °C | [N-]=[N+]=Nc1ccc(C(=O)NCCCC[C@@H](C(=O)O)n2c3ccccc3c3ccccc32)cc1
71 | 72 to 73 °C | CN(C(=O)N(C)c1ccc(CCl)cc1)c1ccc(CCl)cc1
72 | 116 to 120 °C | CN1C(=O)C2C3C=CC(C3)C2(c2ccc(F)c(F)c2)C1=O (centres undefined)

Row | melting point | Compound
73 | 76 to 77 °C | CCOC(=O)C(CC(C)C)NC(=O)N1CCc2cc(S(=O)(=O)N3CCN(c4cccc(Cl)c4)CC3)ccc21 (centres undefined)
74 | 165 to 167 °C | O=C1Nc2cccc(-c3cccc(Cl)c3)c2/C1=C/c1ccc[nH]1
75 | 148 to 149 °C | Oc1ccc2c(c1O)OCC(c1cccc(F)c1)C2 (centres undefined)
76 | 213 to 214 °C | COc1ccc2c(c1)sc1nc(Nc3ccccc3)nc(=Nc3ccccc3)n12
77 | 176 to 178 °C | O=C(Cn1c(-c2ccc(Cl)cc2)nc2cccnc21)N1CCCCC1
78 | 191 to 193 °C | NS(=O)(=O)c1ccc(-n2nc(C(F)(F)F)c(Cl)c2-c2ccc(-c3cncs3)c(Cl)c2)cn1
79 | 240 °C | O=C(O)CCCn1nc(-c2c(-c3ccccc3)nn3ccccc23)ccc1=O
80 | 192 to 194 °C | O=C(Nc1ccc(F)cc1)N1CCc2cc(S(=O)(=O)N3CCN(c4cccc(Cl)c4)CC3)ccc21
81 | 134 °C | COc1ccc(I)c(CC(=O)O)c1
82 | 110 to 112 °C | COc1ccc(CSc2ccncc2)c2c1OCC2C (centres undefined)
83 | 211 to 212 °C | CCOc1nc2cccc(C(=O)OC)c2n1Cc1ccc(-c2ccccc2-c2nc(=O)s[nH]2)cc1
84 | 140 to 142 °C | Nc1ccccc1C(=O)NO
85 | 171 to 175 °C | CSC1N=C(N)C=C(Cl)N1c1c([N+](=O)[O-])cc(C(F)(F)F)c(Cl)c1[N+](=O)[O-] (centres undefined)
86 | 129 °C | CCCCNC(=O)NS(=O)(=O)c1cc(Cl)ccc1C(=O)OC(C)C
87 | 78 to 82 °C | Nc1nc(Cn2c(-c3ccc(Oc4cncnc4)cc3)ccc2-c2ccccc2Cl)ccc1NCCO
88 | 122 to 124 °C | COCCNC(=O)c1ccc(C(=O)N2CCN(c3ncccc3NC(C)C)CC2)nc1
89 | 229 to 231 °C | Clc1cccc(Nc2nnc(-c3ccc4nonc4c3)s2)c1Cl
90 | 60 to 82 °C | CN(CC(=O)C(Cc1ccccc1)NC(=O)c1ccccc1)C(=O)N1CCCC1C(=O)O (centres undefined)
91 | 195 °C | CCCC1=C(C#N)C(c2cccc3nsnc23)c2c[nH]nc2N1 (centres undefined)
92 | 273 to 275 °C | CS(=O)(=O)NC(=O)/C(C#N)=C/c1cn(-c2cc(C(F)(F)F)cc(C(F)(F)F)c2)nc1-c1cccc(Cl)c1
93 | 53 to 54 °C | Cc1c(C(F)(F)F)noc1N
94 | 252 to 253 °C | CNC(=O)c1ccccc1NC(=O)COc1ccc(C(C)=O)cc1
95 | 117 to 118 °C | O=C(Nc1ccc(F)nc1)c1cccc(-c2cccc3oc(Cc4cccc(C(F)(F)F)c4)cc23)c1

Row | Compound | melting point
96 | COC(=O)C=CC1C(C(=O)OC(C)(C)C)C1(C)C (centres undefined) | 67 °C
97 | CN1CC(CNN)CC2c3cccc4c3c(cn4C)CC21 (centres undefined) | 102 to 103 °C
98 | OC1(Cl)C=CC=CC1(O)Cl (centres undefined) | 113 to 114 °C
99 | CCCCNC(=O)OC1c2nccnc2C(=O)N1c1ccc2ccc(Cl)nc2n1 (centres undefined) | 264 °C

Reference: a melting point compilation (Tetko et al.; mined from patent text by program, amines drawn as free bases though some values may be those of a salt)
